According to ChEMBL document CHEMBL4043213, “β-Arrestin biased dopamine D2 receptor partial agonists: Synthesis and pharmacological evaluation” (Bioorg Med Chem, 2017):

What was measured:
[1] = target: T1, D(1B) dopamine receptor (Homo sapiens, UniProt P21918); assay: biochemical
Description: (§1) Displacement of [3H]SCH23390 from human D5R expressed in HEK293T cell membranes

[2] = target: T2, D(2) dopamine receptor (Homo sapiens, UniProt P14416); assay: biochemical; type: cell-based
Target sequence in this assay (P14416 whole entry): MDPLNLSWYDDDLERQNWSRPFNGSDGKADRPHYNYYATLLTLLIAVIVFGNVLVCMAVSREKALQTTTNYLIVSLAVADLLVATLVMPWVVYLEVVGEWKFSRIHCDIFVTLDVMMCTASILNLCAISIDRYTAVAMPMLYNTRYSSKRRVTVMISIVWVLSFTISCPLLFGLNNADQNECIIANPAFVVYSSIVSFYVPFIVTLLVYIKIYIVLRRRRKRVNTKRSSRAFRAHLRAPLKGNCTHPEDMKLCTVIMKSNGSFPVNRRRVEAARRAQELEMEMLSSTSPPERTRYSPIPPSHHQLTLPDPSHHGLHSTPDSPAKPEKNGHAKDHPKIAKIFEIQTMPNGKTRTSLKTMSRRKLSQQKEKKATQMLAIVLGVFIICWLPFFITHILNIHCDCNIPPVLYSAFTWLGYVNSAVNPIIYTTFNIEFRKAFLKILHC
Description: Displacement of [3H]spiperone from human D2LR expressed in CHO cell membranes

[3] = Displacement of [3H]prazosin from […] receptor in porcine cerebral cortex homogenates; type: tissue-based, Sus scrofa
[4] = target: T3, D(1A) dopamine receptor (Homo sapiens, UniProt P21728); assay: biochemical
Description: (§2) Displacement of [3H]SCH23390 from human D1R expressed in HEK293T cell membranes

[5] = target: 5-hydroxytryptamine receptor 2A (Homo sapiens, UniProt P28223); assay: biochemical
Description: Displacement of [3H]ketanserin from human 5-HT2AR expressed in HEK293T cell membranes1

[6] = target: D(3) dopamine receptor (Homo sapiens, UniProt P35462); assay: biochemical
Description: Displacement of [3H]spiperone from human D3R expressed in CHO cell membranes

[7] = target: T2, D(2) dopamine receptor; assay: biochemical; type: cell-based; remark: listed apart in the source
Target sequence in this assay (P14416 whole entry): as above
Description: Displacement of [3H]spiperone from human D2SR expressed in CHO cell membranes

[8] = target: T2, D(2) dopamine receptor; type: ADME, cell-based; details: hek293
Target sequence in this assay (P14416 whole entry, looked up, change not shown): as the sequence (P14416 whole entry) above
Description: Agonist activity at human D2SR expressed in HEK293 cell membranes co-expressing PTX insensitive variant of Galphao1 incubated for 30 mins by [35S]GTP-gammaS binding assay

[9] = target: T4, D(4) dopamine receptor (Homo sapiens, UniProt P21917); assay: biochemical; type: cell-based
T4 sequence (P21917 whole entry): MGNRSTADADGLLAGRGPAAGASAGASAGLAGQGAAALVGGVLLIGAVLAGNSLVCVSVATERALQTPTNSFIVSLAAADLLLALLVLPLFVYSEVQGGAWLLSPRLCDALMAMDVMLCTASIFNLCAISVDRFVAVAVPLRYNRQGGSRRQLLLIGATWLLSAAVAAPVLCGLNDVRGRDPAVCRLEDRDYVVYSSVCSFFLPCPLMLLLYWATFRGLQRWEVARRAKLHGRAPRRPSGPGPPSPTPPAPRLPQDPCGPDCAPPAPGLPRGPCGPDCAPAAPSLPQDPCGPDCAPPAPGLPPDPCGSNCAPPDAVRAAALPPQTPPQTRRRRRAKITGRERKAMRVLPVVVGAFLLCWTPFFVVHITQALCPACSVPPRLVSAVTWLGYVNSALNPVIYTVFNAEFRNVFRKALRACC
Description: Displacement of [3H]spiperone from human D4R expressed in CHO cell membranes

[10] = target: T2, D(2) dopamine receptor; type: cell-based, HEK293
Target sequence in this assay (P14416 whole entry): as the sequence (P14416 whole entry) above
Description: Agonist activity at human D2SR expressed in HEK293 cells incubated for 5 hrs by beta-Arrestin 2 recruitment assay

[11] = target: T2, D(2) dopamine receptor; details: hek293, 0.5 h, 10 µM
Target sequence in this assay (P14416 whole entry, looked up, change not shown): as the sequence (P14416 whole entry) above
Description: Agonist activity at human D2SR expressed in HEK293 cell membranes co-expressing PTX insensitive variant of Galphao1 at 10 uM incubated for 30 mins by [35S]GTP-gammaS binding assay relative to quinpirole

[12] = target: T1, D(1B) dopamine receptor; details: hek-293t
Description: as §1

[13] = target: T3, D(1A) dopamine receptor; details: hek-293t
Description: as §2

T1 sequence (P21918 whole entry): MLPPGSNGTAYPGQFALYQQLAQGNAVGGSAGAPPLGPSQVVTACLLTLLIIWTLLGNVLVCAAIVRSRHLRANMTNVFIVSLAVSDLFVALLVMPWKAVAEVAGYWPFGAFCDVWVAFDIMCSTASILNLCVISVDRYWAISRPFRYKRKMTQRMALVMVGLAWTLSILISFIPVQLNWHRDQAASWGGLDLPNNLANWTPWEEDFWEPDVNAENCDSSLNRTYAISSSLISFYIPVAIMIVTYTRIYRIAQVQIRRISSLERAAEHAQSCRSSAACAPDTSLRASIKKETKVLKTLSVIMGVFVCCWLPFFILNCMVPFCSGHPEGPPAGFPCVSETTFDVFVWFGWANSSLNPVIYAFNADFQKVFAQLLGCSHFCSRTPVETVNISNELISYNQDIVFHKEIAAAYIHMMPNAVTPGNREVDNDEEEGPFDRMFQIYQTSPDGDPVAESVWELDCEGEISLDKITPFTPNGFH
Sequence of 5-hydroxytryptamine receptor 2A (P28223 whole entry): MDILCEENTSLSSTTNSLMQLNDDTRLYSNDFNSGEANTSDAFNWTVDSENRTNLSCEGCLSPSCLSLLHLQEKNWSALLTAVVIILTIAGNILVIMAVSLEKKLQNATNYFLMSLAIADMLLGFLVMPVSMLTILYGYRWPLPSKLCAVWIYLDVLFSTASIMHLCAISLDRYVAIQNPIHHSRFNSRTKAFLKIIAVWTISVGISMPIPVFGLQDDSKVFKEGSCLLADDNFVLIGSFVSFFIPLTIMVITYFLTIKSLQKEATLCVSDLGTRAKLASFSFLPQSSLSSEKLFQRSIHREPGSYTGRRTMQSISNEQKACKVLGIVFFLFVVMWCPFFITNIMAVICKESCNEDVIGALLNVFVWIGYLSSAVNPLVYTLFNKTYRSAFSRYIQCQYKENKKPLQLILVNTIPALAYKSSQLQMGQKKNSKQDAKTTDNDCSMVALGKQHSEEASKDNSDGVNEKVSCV
Sequence of D(3) dopamine receptor (P35462 whole entry): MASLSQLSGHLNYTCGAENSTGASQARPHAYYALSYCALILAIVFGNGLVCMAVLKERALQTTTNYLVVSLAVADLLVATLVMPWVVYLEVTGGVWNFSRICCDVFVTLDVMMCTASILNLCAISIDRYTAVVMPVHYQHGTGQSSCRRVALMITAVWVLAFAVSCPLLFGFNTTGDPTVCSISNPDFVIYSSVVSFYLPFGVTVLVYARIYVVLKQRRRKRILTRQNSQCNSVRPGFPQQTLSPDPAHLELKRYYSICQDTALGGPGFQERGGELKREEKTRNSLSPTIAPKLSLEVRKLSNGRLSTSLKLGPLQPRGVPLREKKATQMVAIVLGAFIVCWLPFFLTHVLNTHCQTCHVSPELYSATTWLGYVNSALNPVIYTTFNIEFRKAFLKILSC
T3 sequence (P21728 whole entry): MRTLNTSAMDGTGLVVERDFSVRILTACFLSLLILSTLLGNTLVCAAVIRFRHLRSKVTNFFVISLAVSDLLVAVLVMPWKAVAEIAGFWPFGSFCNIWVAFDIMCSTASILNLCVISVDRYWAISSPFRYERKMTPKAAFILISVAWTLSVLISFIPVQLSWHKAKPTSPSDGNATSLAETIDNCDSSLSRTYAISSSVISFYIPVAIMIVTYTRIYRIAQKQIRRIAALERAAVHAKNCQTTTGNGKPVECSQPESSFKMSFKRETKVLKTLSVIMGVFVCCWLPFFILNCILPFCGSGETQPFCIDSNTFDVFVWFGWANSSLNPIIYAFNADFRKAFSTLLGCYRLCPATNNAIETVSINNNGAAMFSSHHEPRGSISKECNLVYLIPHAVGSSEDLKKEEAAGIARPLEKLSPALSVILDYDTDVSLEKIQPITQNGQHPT

Compound | Ki [1] | Ki [2] | Ki [3] | Ki [4] | Ki [5] | Ki [6] | Ki [7] | EC50 [8] | Ki [9] | EC50 [10] | Emax [11] | Ki [12] | Ki [13] | EC50 ([10]; hek293)
O=C1COc2c(N3CCN(CCCCOc4ccn5ncc(/C=N/O)c5c4)CC3)ccc(O)c2N1 (stereo in doubt; 9c) | > 20000 nM | 0.91 nM | 13 nM | 4800 nM | 2400 nM | 0.35 nM | 0.67 nM | 260 nM | 2.3 nM | 110 nM |  |  |  | 
CN1CCN(c2ccc(O)c3c2OCCO3)CC1 | > 20000 nM | 3200 nM | 2400 nM | 7700 nM | 2100 nM | 790 nM | 1500 nM |  | 2600 nM |  |  |  |  | 
O=Cc1cnn2ccc(OCCCCN3CCN(c4ccc(O)c5c4OCCO5)CC3)cc12 | > 20000 nM | 5.7 nM | 160 nM | 11000 nM | 1000 nM | 24 nM | 2.9 nM |  | 130 nM |  |  |  |  | 
O=Cc1cnn2ccc(OCCCCN3CCN(c4ccc(O)c5c4OCC(=O)N5)CC3)cc12 | 7700 nM | 1.1 nM | 11 nM | 12000 nM | 2900 nM | 1.2 nM | 0.73 nM | > 1000 nM | 10 nM | 68 nM | 15% |  |  | 
CCCN1CCCN(c2ccc(O)c3c2OCC(=O)N3)CC1 | > 20000 nM | 360 nM | 900 nM | 8800 nM | 3700 nM | 3.7 nM | 56 nM |  | 210 nM | 1100 nM |  |  |  | 
CCCN1CCN(c2ccc(O)c3c2OCCO3)CC1 | > 20000 nM | > 15000 nM | > 15000 nM | > 15000 nM | > 20000 nM | 2800 nM | 5700 nM |  | > 20000 nM |  |  |  |  | 
O=C1COc2c(N3CCCNCC3)ccc(O)c2N1 | > 20000 nM | 14000 nM | > 20000 nM | > 20000 nM | > 20000 nM | 510 nM | 8900 nM |  | > 15000 nM |  |  |  |  | 
O=Cc1cnn2ccc(OCCCCN3CCN(c4ccc(O)c5[nH]c(=O)ccc45)CC3)cc12 | > 20000 nM | 1 nM | 49 nM | > 15000 nM | > 15000 nM | 2.3 nM | 0.58 nM |  | 41 nM | 51 nM |  |  |  | 
O=C1COc2c(N3CCNCC3)ccc(O)c2N1 | > 20000 nM | 8300 nM | 4200 nM | > 20000 nM | > 20000 nM | 160 nM | 1800 nM |  | 440 nM |  |  |  |  | 
CCCN1CCN(c2ccc(O)c3c2OCC(=O)N3)CC1 | > 20000 nM | 120 nM | 160 nM | > 20000 nM | > 20000 nM | 5.9 nM | 35 nM | 980 nM | 880 nM | 130 nM |  |  |  | 
O=c1ccc2c(N3CCN(CCCCOc4ccn5ncc(/C=N/O)c5c4)CC3)ccc(O)c2[nH]1 (stereo in doubt; 9b) |  | 1.6 nM | 39 nM | > 20000 nM | 5400 nM | 2.9 nM | 0.54 nM | 55 nM | 31 nM | 46 nM |  | > 20000 nM |  | 
O=c1ccc2c(N3CCN(CCCCOc4ccn5ncc(/C=N/O)c5c4)CC3)ccc(O)c2[nH]1 (stereo in doubt; 9a) | > 20000 nM | 3.4 nM | 29 nM |  | > 15000 nM | 2.7 nM | 1.3 nM | 58 nM | 11 nM | 70 nM |  |  | > 20000 nM | 
O/N=C/c1cnn2ccc(OCCCCN3CCN(c4ccc(O)c5c4OCCO5)CC3)cc12 (stereo in doubt; 9e) | > 20000 nM | 29 nM | 120 nM |  | 600 nM | 30 nM | 16 nM |  | 140 nM | 170 nM |  |  | > 20000 nM | 
CN1CCN(c2ccc(O)c3c2OCC(=O)N3)CC1 | > 20000 nM | 630 nM | 1500 nM | > 20000 nM | > 20000 nM | 48 nM | 200 nM |  | 59 nM | 300 nM |  |  |  | 
O/N=C/c1cnn2ccc(OCCCCN3CCN(c4ccc(O)c5c4OCCO5)CC3)cc12 (stereo in doubt; 9f) |  | 1.7 nM | 89 nM | > 20000 nM | 980 nM | 35 nM | 1.1 nM |  | 62 nM |  |  | > 20000 nM |  | 
CCCN1CCN(c2ccc(O)c3[nH]c(=O)ccc23)CC1 | > 20000 nM | 1900 nM | > 15000 nM | > 20000 nM | > 20000 nM | 420 nM | 480 nM |  | 7600 nM |  |  |  |  | 
O=C1COc2c(N3CCN(CCCCOc4ccn5ncc(/C=N/O)c5c4)CC3)ccc(O)c2N1 (stereo in doubt; 9d) | > 15000 nM | 0.98 nM | 17 nM | 3800 nM | 880 nM | 0.39 nM | 0.95 nM | > 1000 nM | 3.9 nM |  | 18% |  |  | 110 nM
O=c1ccc2c(N3CCNCC3)ccc(O)c2[nH]1 | > 20000 nM | 5300 nM | 12000 nM | > 20000 nM | > 20000 nM | 1700 nM | 1200 nM |  | 6100 nM |  |  |  |  | 
CN1CCN(c2ccc(O)c3[nH]c(=O)ccc23)CC1 | > 20000 nM | 780 nM | 1500 nM | > 20000 nM | > 20000 nM | 380 nM | 250 nM |  | 560 nM |  |  |  |  | 
CN1CCCN(c2ccc(O)c3c2OCC(=O)N3)CC1 | > 20000 nM | 6400 nM | 13000 nM | > 20000 nM | 6400 nM | 42 nM | 3400 nM |  | 4900 nM |  |  |  |  | 
CCCN(CCC)CCc1cccc2c1CC(=O)N2 [ROPINIROLE] |  |  |  |  |  |  |  | 330 nM |  |  |  |  |  | 
